From patent publication US20150001139A1, “REAL-TIME INTEGRITY MONITORING OF SEPARATION MEMBRANES” (THE REGENTS OF THE UNIVERSITY OF CALIFORNIA, priority 2013, published 2015)
Converted amounts (≈) assume the structure as drawn.

Legend:
[1] = cited from earlier work
[2] = Preliminary evaluation of uranine fluorescence stability (pH, chlorine); assay type: physicochemical
Experimental: Fluorescent molecular markers are subjected to screening criteria, including low toxicity, low background fluorescence in water, economic feasibility for long term use, and commercial availability. Screening criteria are also based on experiments, including stability with light exposure, strong fluorescent intensity, stability under various pH conditions, and stability under chlorine exposure.
Uranine stock solutions were prepared from reagent-grade uranine powder (Fisher Scientific, Pittsburgh, Pa.) dissolved in ultra-pure deionized water from a Milli-Q water purification system (Millipore Corp., San Jose, Calif.). RO desalting runs were conducted using low salinity potable tap water (average reported total dissolved solids (TDS) of about 265 mg/l, TOC of about 1.7 mg/l, and total hardness of about 113 mg/l as CaCO3).

stability of fluorescence intensity with pH ([2]; typical RO process pH operating range, pH of about 6-8) | Compound | Solubility in Water [1] | chlorine tolerance of fluorescence ([2]; about 1-4 ppm of free chlorine)
 | O=C(O)c1c(Cl)c(Cl)c(Cl)c(Cl)c1-c1c2cc(I)c(=O)c(I)c-2oc2c(I)c(O)c(I)cc12 [Bengal rose] | 100 mg/mL (≈ 103 mM) | 
 | O=C(O)c1ccccc1-c1c2cc([N+](=O)[O-])c(=O)c(Br)c-2oc2c(Br)c(O)c([N+](=O)[O-])cc12 [Eosin B] | 40 mg/mL (≈ 69 mM) | 
 | Cc1ccc(N2C(=O)c3cccc4c(N)c(S(=O)(=O)[O-])cc(c34)C2=O)cc1.[Na+] [Lissamine FF] | 40 mg/mL | 
 | O=S(=O)([O-])c1cc(O)c2ccc3c(S(=O)(=O)[O-])cc(S(=O)(=O)[O-])c4ccc1c2c34.[Na+].[Na+].[Na+] [Pyranine] | 178 mg/mL | 
 | CCN(CC)c1ccc2c(-c3ccc(S(=O)(=O)O)cc3S(=O)(=O)[O-])c3ccc(=[N+](CC)CC)cc-3oc2c1 [Sulforhodamine B] | 10 mg/mL (≈ 17.9 mM) | 
 | O=S(=O)([O-])c1ccccc1C=Cc1ccc(-c2ccc(C=Cc3ccccc3S(=O)(=O)[O-])cc2)cc1.[Na+].[Na+] [Tinopal CBS-X] | 25 mg/mL | 
stable fluorescence intensity | O=C([O-])c1ccccc1-c1c2ccc(=O)cc-2oc2cc([O-])ccc12.[Na+].[Na+] [Uranine] |  | high level of chlorine tolerance
 | Amidorhodamine G | very soluble | 
 | Erythrosine | 20 mg/mL | 
 | Lanaperl fast yellow | very soluble | 
 | Sodium naphtionate | 240 mg/mL | 
